Laboratory results reported in ChEMBL document CHEMBL1201862, “PubChem BioAssay data set” (2004).
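48-hour exposure; five concentrations; linearly interpolated endpoints. GI50: concentration for 50% inhibition of growth.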 The source made the active and inactive calls. Cut-off read from the data, not from the text of the source: active = GI50 up to about 1.1 µM and inactive = higher.

What was measured:
Assay in all cases: NCI anticancer screen, dose series, 48 h
SN12C = test system: SN12C
SNB-75 = test system: SNB-75
MDA-MB-435 = test system: MDA-MB-435
SF-268 = test system: SF-268
NCI-H226 = test system: NCI-H226
MOLT-4 = test system: MOLT-4
786-0 = test system: 786-0
OVCAR-4 = test system: OVCAR-4
K562 = test system: K562
IGROV-1 = test system: IGROV-1
T47D = test system: T47D
Hs-578T = test system: Hs-578T
RXF 393 = test system: RXF 393
A549 = test system: A549
NCI-H522 = test system: NCI-H522
LOX IMVI = test system: LOX IMVI
SF-539 = test system: SF-539
COLO 205 = test system: COLO 205
HOP-62 = test system: HOP-62
NCI/ADR-RES = test system: NCI/ADR-RES
UACC-62 = test system: UACC-62
DU-145 = test system: DU-145
HCT-15 = test system: HCT-15
A498 = test system: A498
BT-549 = test system: BT-549
ACHN = test system: ACHN
EKVX = test system: EKVX
SNB-19 = test system: SNB-19
M14 = test system: M14
Malme-3M = test system: Malme-3M
PC-3 = test system: PC-3
U-251 = test system: U-251
SK-OV-3 = test system: SK-OV-3
HOP-92 = test system: HOP-92
MDA-N = test system: MDA-N
HCT-116 = test system: HCT-116
HT-29 = test system: HT-29
SK-MEL-2 = test system: SK-MEL-2
RPMI-8226 = test system: RPMI-8226
KM12 = test system: KM12
OVCAR-8 = test system: OVCAR-8
SW-620 = test system: SW-620
MDA-MB-231 = test system: MDA-MB-231
SF-295 = test system: SF-295
NCI-H23 = test system: NCI-H23
CAKI-1 = test system: CAKI-1
OVCAR-3 = test system: OVCAR-3
SK-MEL-5 = test system: SK-MEL-5
OVCAR-5 = test system: OVCAR-5
SK-MEL-28 = test system: SK-MEL-28
TK-10 = test system: TK-10
NCI-H460 = test system: NCI-H460
MCF7 = test system: MCF7
UACC-257 = test system: UACC-257
CCRF-CEM = test system: CCRF-CEM
HL-60 = test system: HL-60
UO-31 = test system: UO-31

Measured: GI50

COc1ccc(C(=O)C(Br)C(Br)C(=O)O)cc1 (centres undefined)
37.5 µM: HCT-15
inactive: SN12C 47.2 µM | SNB-75 67.3 µM | MDA-MB-435 36.1 µM | SF-268 32.8 µM | NCI-H226 > 100 µM | MOLT-4 14 µM | 786-0 31.8 µM | OVCAR-4 53 µM | K562 29 µM | IGROV-1 51.1 µM | T47D 33.1 µM | Hs-578T 35.2 µM | RXF 393 24.2 µM | A549 66.5 µM | NCI-H522 16.7 µM | LOX IMVI 21 µM | SF-539 21.4 µM | COLO 205 21.9 µM | HOP-62 36.6 µM | NCI/ADR-RES 30.1 µM | UACC-62 47.9 µM | DU-145 80.2 µM | A498 > 100 µM | BT-549 26.5 µM | ACHN 44.2 µM | EKVX 53.6 µM | SNB-19 83.8 µM | M14 54.1 µM | Malme-3M 21.4 µM | PC-3 56.5 µM | U-251 35.3 µM | SK-OV-3 33.7 µM | HOP-92 > 100 µM | MDA-N 38.1 µM | HCT-116 20.8 µM | HT-29 15.6 µM | SK-MEL-2 39 µM | RPMI-8226 20.4 µM | KM12 52.1 µM | OVCAR-8 32.7 µM | SW-620 23.3 µM | MDA-MB-231 > 100 µM | SF-295 > 100 µM | NCI-H23 39.4 µM | CAKI-1 38.3 µM | OVCAR-3 28.3 µM | SK-MEL-5 > 100 µM | OVCAR-5 32.7 µM | SK-MEL-28 40.4 µM | TK-10 90.2 µM | NCI-H460 36.3 µM | MCF7 35.8 µM | UACC-257 > 100 µM

CC1CC/C(=C\c2ccc(F)cc2)C2=C1C(c1ccc(F)cc1)N1C(=O)CSC1=N2 (centres undefined)
43.3 µM: HCT-15
inactive: CCRF-CEM 41.2 µM | SN12C > 100 µM | MDA-MB-435 91 µM | SF-268 > 100 µM | NCI-H226 53 µM | MOLT-4 6.55 µM | 786-0 > 100 µM | K562 21.9 µM | IGROV-1 9.23 µM | T47D 45.1 µM | Hs-578T > 100 µM | RXF 393 21.7 µM | LOX IMVI 44 µM | SF-539 > 100 µM | COLO 205 > 100 µM | NCI/ADR-RES 49.9 µM | UACC-62 > 100 µM | DU-145 > 100 µM | A498 57 µM | BT-549 > 100 µM | ACHN > 100 µM | EKVX 17.7 µM | SNB-19 > 100 µM | M14 > 100 µM | Malme-3M > 100 µM | PC-3 25.6 µM | U-251 93.3 µM | SK-OV-3 > 100 µM | MDA-N > 100 µM | HCT-116 50 µM | HT-29 23.2 µM | SK-MEL-2 > 100 µM | RPMI-8226 15.5 µM | KM12 35.7 µM | OVCAR-8 69.7 µM | SW-620 > 100 µM | HL-60 4.35 µM | MDA-MB-231 > 100 µM | SF-295 45.6 µM | NCI-H23 58.5 µM | CAKI-1 > 100 µM | OVCAR-3 > 100 µM | SK-MEL-5 40 µM | SK-MEL-28 > 100 µM | UO-31 87.9 µM | TK-10 > 100 µM | NCI-H460 30.8 µM | MCF7 55.1 µM | UACC-257 62.1 µM
